Results published in patent publication US11999758B2, “Inhibitors of the YAP/TAZ-TEAD interaction and their use in the treatment of cancer” (INVENTIVA, priority 2018, dated 2024).

Target: T1, YAP-TEAD interaction (Homo sapiens, UniProt P28347)
T1 construct: expressed in transfected cells; host or cells: HEK293 GripTite 293 MSR (Invitrogen R795-07)
Assay: Cell-based TEAD-GAL4 transactivation assay (luciferase reporter)
Details: HEK293 cells transfected with TEAD1-Gal4, YAP mutant (S127A, S397A) and luciferase reporter, compounds 0.1 μM to 30 μM; for Emax: HEK293, 24 h, read-out: TEAD-GAL4 Transactivation activity Max Act; for IC50: 24 h
Summary of the method: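 HEK293 cells transiently transfected with Gal4-DBD–full-length human TEAD1, full-length YAP S127A/S397A (YAP/TEAD ratio 10) and a 5×GAL4-RE TK-luciferase reporter. Six hours later, compounds added semi-log from 0.1 to 30 μM (DMSO 0.5% control) for 24 h. Luciferase read; IC50 from 3-parameter fit.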

T1 sequence (P28347 whole entry): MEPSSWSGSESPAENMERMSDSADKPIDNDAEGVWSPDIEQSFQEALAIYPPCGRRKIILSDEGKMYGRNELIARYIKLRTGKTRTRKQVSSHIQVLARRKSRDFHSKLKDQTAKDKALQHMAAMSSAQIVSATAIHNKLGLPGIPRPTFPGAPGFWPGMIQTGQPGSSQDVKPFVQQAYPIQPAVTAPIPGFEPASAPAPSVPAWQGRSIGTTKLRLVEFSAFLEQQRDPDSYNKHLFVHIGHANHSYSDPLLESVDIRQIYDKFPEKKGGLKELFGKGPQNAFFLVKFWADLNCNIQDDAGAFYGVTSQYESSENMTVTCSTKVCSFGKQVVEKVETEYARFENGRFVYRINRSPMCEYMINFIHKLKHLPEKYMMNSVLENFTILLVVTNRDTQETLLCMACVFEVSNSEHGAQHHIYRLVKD

Structure (SMILES)	Emax [%]	IC50 [nM]
Cc1ccc2c(c1)C(N(C)/N=C/c1ccc3c(c1)COB3O)=NS2(=O)=O [Ex 36, N-[(E)-(1-hydroxy-3H-2,1-benzoxaborol-5-yl)methyleneamino]-N,5-dimethyl-1,1-dioxo-1,2-benzothiazol-3-amine]	60	–
COc1ccc2c(c1)C(N(C)/N=C/c1ccc3c(c1)COB3O)=NS2(=O)=O [Ex 37, N-[(E)-(1-hydroxy-3H-2,1-benzoxaborol-5-yl)methyleneamino]-5-methoxy-N-methyl-1,1-dioxo-1,2-benzothiazol-3-amine]	92	4550
CCN(/N=C/c1ccc2c(c1)COB2O)c1ncnc2sccc12 [Ex 40, N-ethyl-N-[(E)-(1-hydroxy-3H-2,1-benzoxaborol-5-yl)methyleneamino]-thieno[2,3-d]pyrimidin-4-amine]	85	690
CCN(/N=C/c1ccc2c(c1)COB2O)c1nc(C)nc2ccsc12 [Ex 45, N-ethyl-N-[(E)-(1-hydroxy-3H-2,1-benzoxaborol-5-yl)methyleneamino]-2-methyl-thieno[3,2-d]pyrimidin-4-amine]	63	1020
CC(C)CN(/N=C/c1ccc2c(c1)CCCOB2O)C1=NS(=O)(=O)c2ccccc21 [Ex 47, N-[(E)-(1-hydroxy-4,5-dihydro-3H-2,1-benzoxaborepin-7-yl)methyleneamino]-N-isobutyl-1,1-dioxo-1,2-benzothiazol-3-amine]	73	–
CC(C)CN(/N=C/c1ccc2c(c1)C(C)OB2O)C1=NS(=O)(=O)c2ccccc21 (stereo not shown) [Ex 49, N-[(E)-(1-hydroxy-3-methyl-3H-2,1-benzoxaborol-5-yl)methyleneamino]-N-isobutyl-1,1-dioxo-1,2-benzothiazol-3-amine]	88	4680
CC1OB(O)c2ccc(/C=N/N(C)C3=NS(=O)(=O)c4ccccc43)cc21 (stereo not shown) [Ex 50, N-[(E)-(1-hydroxy-3-methyl-3H-2,1-benzoxaborol-5-yl)methyleneamino]-N-methyl-1,1-dioxo-1,2-benzothiazol-3-amine]	81	5130
COc1cc(C2=NN(C3=NS(=O)(=O)c4ccccc43)C(C)CC2)ccc1B(O)O (stereo not shown) [Ex 52, [4-[2-(1,1-dioxo-1,2-benzothiazol-3-yl)-3-methyl-4,5-dihydro-3H-pyridazin-6-yl]-2-methoxy-phenyl]boronic acid]	70	1660
CC1CCC(c2ccc3c(c2)COB3O)=NN1C1=NS(=O)(=O)c2ccccc21 (stereo not shown) [Ex 53, 3-[6-(1-hydroxy-3H-2,1-benzoxaborol-5-yl)-3-methyl-4,5-dihydro-3H-pyridazin-2-yl]-1,2-benzothiazole 1,1-dioxide]	87	3040
COc1cccc2c(N3N=C(c4ccc5c(c4)COB5O)CCC3C)ncnc12 (stereo not shown) [Ex 56, 4-[6-(1-hydroxy-3H-2,1-benzoxaborol-5-yl)-3-methyl-4,5-dihydro-3H-pyridazin-2-yl]-8-methoxy-quinazoline]	84	1000
COc1cc(C2=NN(C3=NS(=O)(=O)c4ccccc43)CC(C)(C)C2)ccc1B(O)O [Ex 57, [4-[2-(1,1-dioxo-1,2-benzothiazol-3-yl)-4,4-dimethyl-3,5-dihydro-pyridazin-6-yl]-2-methoxy-phenyl]boronic acid]	84	3060
COc1cc(/C=N/N(C)c2cc(C)cnn2)ccc1B(O)O [Ex 59, [2-methoxy-4-[(E)-[methyl-(5-methylpyridazin-3-yl)hydrazono]methyl]-phenyl] boronic acid]	71	–

More lines, now with the values ahead:

Emax [%]	IC50 [nM]	Structure (SMILES)
87	1360	CC(C)CN(/N=C/c1ccc2c(c1)COB2O)c1ncnc2ccsc12 [Ex 35, N-[(E)-(1-hydroxy-3H-2,1-benzoxaborol-5-yl)methyleneamino]-N-isobutyl-thieno [3,2-d]pyrimidin-4-amine]
81	510	CCN(/N=C/c1ccc2c(c1)COB2O)c1ncnc2ccsc12 [Ex 38, N-ethyl-N-[(E)-(1-hydroxy-3H-2,1-benzoxaborol-5-yl)methyleneamino]-thieno[3,2-d]pyrimidin-4-amine]
83	570	CCN(/N=C/c1ccc2c(c1)COB2O)c1ncnc2c1cnn2C [Ex 41, N-ethyl-N-[(E)-(1-hydroxy-3H-2,1-benzoxaborol-5-yl)methyleneamino]-1-methyl-pyrazolo[3,4-d]pyrimidin-4-amine]
78	920	CCN(/N=C/c1ccc2c(c1)COB2O)c1ncnc2c1ccn2C [Ex 44, N-ethyl-N-[(E)-(1-hydroxy-3H-2,1-benzoxaborol-5-yl)methyleneamino]-7-methyl-pyrrolo[2,3-d]pyrimidin-4-amine]
72	–	CC(C)CN(/N=C/c1ccc2c(c1)CCOB2O)C1=NS(=O)(=O)c2ccccc21 [Ex 46, N-[(E)-(1-hydroxy-3,4-dihydro-2,1-benzoxaborinin-6-yl)methyleneamino]-N-isobutyl-1,1-dioxo-1,2-benzothiazol-3-amine]
77	–	COc1cc(/C=N/N(CC(C)C)C2=NS(=O)(=O)c3ccccc32)cc2c1B(O)OC2 [Ex 48, N-[(E)-(1-hydroxy-7-methoxy-3H-2,1-benzoxaborol-5-yl)methyleneamino]-N-isobutyl-1,1-dioxo-1,2-benzothiazol-3-amine]
75	8480	CN(/N=C/c1ccc2c(c1)COB2O)C1=NS(=O)(=O)C2=C1CCCC2 [Ex 51, N-[(E)-(1-hydroxy-3H-2,1-benzoxaborol-5-yl)methyleneamino]-N-methyl-1,1-dioxo-4,5,6,7-tetrahydro-1,2-benzothiazol-3-amine]
76	2350	COc1cc(OC)c2c(c1)C(N1N=C(c3ccc(B(O)O)c(OC)c3)CCC1C)=NS2(=O)=O (stereo not shown) [Ex 54, [4-[2-(5,7-dimethoxy-1,1-dioxo-1,2-benzothiazol-3-yl)-3-methyl-4,5-dihydro-3H-pyridazin-6-yl]-2-methoxy-phenyl]boronic acid]
92	1530	COc1cc(C2=NN(c3ncnc4c(OC)cccc34)C(C)CC2)ccc1B(O)O (stereo not shown) [Ex 55, [2-methoxy-4-[2-(8-methoxyquinazolin-4-yl)-3-methyl-4,5-dihydro-3H-pyridazin-6-yl]phenyl]boronic acid]
81	3240	COc1cc(C2=NN(C3=NS(=O)(=O)c4ccccc43)CC(C)O2)ccc1B(O)O (stereo not shown) [Ex 58, [4-[4-(1,1-dioxo-1,2-benzothiazol-3-yl)-6-methyl-5,6-dihydro-1,3,4-oxadiazin-2-yl]-2-methoxy-phenyl]boronic acid]
79	5000	COc1cnnc(N(C)/N=C/c2ccc3c(c2)COB3O)c1 [Ex 60, N-[(E)-(1-hydroxy-3H-2,1-benzoxaborol-5-yl)methyleneamino]-5-methoxy-N-methyl-pyridazin-3-amine]
87	6630	COc1cc(/C=N/N(CC(C)C)C2=NS(=O)(=O)c3ccccc32)ccc1B1OC(=O)CN(C)CC(=O)O1 [Ex 61, 2-[4-[(E)-[(1,1-dioxo-1,2-benzothiazol-3-yl)-isobutyl-hydrazono]methyl]-2-methoxy-phenyl]-6-methyl-1,3,6,2-dioxazaborocane-4,8-dione]
